Test results reported in patent US20240116985A1, “STAPLED PEPTIDES AND METHODS THEREOF” (priority 2020, published 2024).

Key:
CHI Log D procedure = format: physicochemical; details: for chromatographic logD: pH 7.4, CHI Log D
[1] = molecular target: T1, full-length beta-Catenin (Uniprot ID P35222) (Homo sapiens, UniProt P35222); assay: Fluorescence polarization IC50 (beta-catenin / 5FAM-TCF4 10-53 competition); format: binding; details: fluorescence polarization; read-out: beta-Catenin FP IC50
T1 construct: 10 nM full-length beta-Catenin (Uniprot ID P35222)
T1 sequence (P35222 1-781): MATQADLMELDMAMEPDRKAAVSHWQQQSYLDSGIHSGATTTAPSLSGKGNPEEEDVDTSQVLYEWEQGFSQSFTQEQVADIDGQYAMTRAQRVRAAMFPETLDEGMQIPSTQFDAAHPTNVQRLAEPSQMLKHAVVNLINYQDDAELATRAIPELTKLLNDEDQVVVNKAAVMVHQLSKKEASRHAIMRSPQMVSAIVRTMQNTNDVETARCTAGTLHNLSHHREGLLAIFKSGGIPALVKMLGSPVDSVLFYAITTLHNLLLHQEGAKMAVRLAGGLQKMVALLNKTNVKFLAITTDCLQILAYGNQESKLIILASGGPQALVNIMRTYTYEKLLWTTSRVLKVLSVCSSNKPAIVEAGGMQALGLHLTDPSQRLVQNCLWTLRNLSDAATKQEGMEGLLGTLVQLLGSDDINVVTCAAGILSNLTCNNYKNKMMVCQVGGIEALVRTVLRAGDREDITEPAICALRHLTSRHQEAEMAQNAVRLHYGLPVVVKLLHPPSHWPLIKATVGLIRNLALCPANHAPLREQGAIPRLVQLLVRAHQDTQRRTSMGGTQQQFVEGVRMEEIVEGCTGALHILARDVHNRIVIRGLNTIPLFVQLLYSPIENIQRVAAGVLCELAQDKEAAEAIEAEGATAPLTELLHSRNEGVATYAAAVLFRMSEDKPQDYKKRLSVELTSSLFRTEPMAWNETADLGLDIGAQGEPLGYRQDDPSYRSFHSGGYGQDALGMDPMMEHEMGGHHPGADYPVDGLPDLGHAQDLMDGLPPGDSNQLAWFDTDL

[2] = molecular target: T2, beta-catenin/TCF4 engagement (Homo sapiens, UniProt P35222); assay: Nano-BRET target engagement assay (B-cat-Halo & TCF4-Luc in HEK293 cells); format: cell-based; details: read-out: NanoBRET Abs IC50
T2 construct: expressed in transfected cells; host or cells: HEK293
T2 sequence (P35222 1-781): T1 sequence (P35222 1-781)

chromatographic logD (CHI Log D procedure)	CHI Log D (CHI Log D procedure; pH 7.4)	IC50 [1]	IC50 [2]	Compound
		205 nM	> 20000 nM	CC(=O)N1CCC[C@]12CC=CCCCC1(CCCC=CCCCOC(=O)N3CCC(C(=O)N[C@@H](Cc4ccccc4C(F)(F)F)C(=O)N[C@@H](Cc4csc5ccccc45)C(=O)N[C@@H](CCC(N)=O)C(N)=O)(CC3)NC(=O)[C@H](CC(C)C)NC(=O)[C@H](Cc3ccccc3)NC(=O)[C@H](C)NC(=O)[C@H](C)NC(=O)[C@H](Cc3cccc(C(=O)O)c3)NC(=O)[C@H](CC(=O)O)NC1=O)NC(=O)[C@H](CC(C)(C)C)NC(=O)[C@H](CC(=O)O)NC2=O (stereo partly drawn) [I-2581, Ac-PL3-Asp-Npg-B5-Asp-3COOHF-Ala-Ala-Phe-Leu-SPip2-2F3MeF-BztA-Gln-NH2]
		263 nM	> 20000 nM	CC(=O)N1CCC[C@]12CC=CCCCC1(CCCC=CCCCOC(=O)N3CCC(C(=O)N[C@@H](Cc4ccccc4C(F)(F)F)C(=O)N[C@@H](Cc4csc5ccccc45)C(=O)N[C@@H](CCC(N)=O)C(N)=O)(CC3)NC(=O)[C@H](CC(C)C)NC(=O)[C@H](Cc3ccccc3)NC(=O)[C@H](C)NC(=O)[C@H](C)NC(=O)[C@H](Cc3cccc(C(=O)O)c3)NC(=O)[C@H](CC(=O)O)NC1=O)NC(=O)[C@H](CC(C)(C)C)NC(=O)[C@H](CC(=O)O)NC2=O (stereo partly drawn) [I-2582, Ac-PL3-Asp-Npg-B5-Asp-3COOHF-Ala-Ala-Phe-Leu-SPip2-2F3MeF-BztA-Gln-NH2]
		224 nM	> 20000 nM	CC(=O)N1CCC[C@]12CC=CCCCC1(CCCC=CCCCCOC(=O)N3CCC(C(=O)N[C@@H](Cc4ccccc4C(F)(F)F)C(=O)N[C@@H](Cc4csc5ccccc45)C(=O)N[C@@H](CCC(N)=O)C(N)=O)(CC3)NC(=O)[C@H](CC(C)C)NC(=O)[C@H](Cc3ccccc3)NC(=O)[C@H](C)NC(=O)[C@H](C)NC(=O)[C@H](Cc3cccc(C(=O)O)c3)NC(=O)[C@H](CC(=O)O)NC1=O)NC(=O)[C@H](CC(C)(C)C)NC(=O)[C@H](CC(=O)O)NC2=O (stereo partly drawn) [I-2583, Ac-PL3-Asp-Npg-B5-Asp-3COOHF-Ala-Ala-Phe-Leu-SPip3-2F3MeF-BztA-Gln-NH2]
		25 nM	15200 nM	CC(=O)N1CCC[C@]12CC=CCCCC1(CCCC=CCCCOC(=O)N3CCC(C(=O)N[C@@H](Cc4ccsc4)C(=O)N[C@@H](Cc4csc5ccccc45)C(=O)N[C@@H](CCC(N)=O)C(N)=O)(CC3)NC(=O)[C@H](CC(C)C)NC(=O)[C@H](Cc3ccccc3)NC(=O)[C@H](C)NC(=O)[C@H](C)NC(=O)[C@H](Cc3cccc(C(=O)O)c3)NC(=O)[C@H](CC(=O)O)NC1=O)NC(=O)[C@H](CC(C)(C)C)NC(=O)[C@H](CC(=O)O)NC2=O (stereo partly drawn) [I-2589, Ac-PL3-Asp-Npg-B5-Asp-3COOHF-Ala-Ala-Phe-Leu-SPip2-3Thi-BztA-Gln-NH2]
		25 nM	18900 nM	CC(=O)N1CCC[C@]12CC=CCCCC1(CCCC=CCCCCOC(=O)N3CCC(C(=O)N[C@@H](Cc4ccsc4)C(=O)N[C@@H](Cc4csc5ccccc45)C(=O)N[C@@H](CCC(N)=O)C(N)=O)(CC3)NC(=O)[C@H](CC(C)C)NC(=O)[C@H](Cc3ccccc3)NC(=O)[C@H](C)NC(=O)[C@H](C)NC(=O)[C@H](Cc3cccc(C(=O)O)c3)NC(=O)[C@H](CC(=O)O)NC1=O)NC(=O)[C@H](CC(C)(C)C)NC(=O)[C@H](CC(=O)O)NC2=O (stereo partly drawn) [I-2590, Ac-PL3-Asp-Npg-B5-Asp-3COOHF-Ala-Ala-Phe-Leu-SPip3-3Thi-BztA-Gln-NH2]
		37 nM	> 20000 nM	CC(=O)N1CCC[C@]12CC=CCCCC1(CCCC=CCCCOC(=O)N3CCC(C(=O)N[C@@H](Cc4ccsc4)C(=O)N[C@@H](Cc4csc5ccccc45)C(=O)N[C@@H](C)C(N)=O)(CC3)NC(=O)[C@H](CC(C)C)NC(=O)[C@H](Cc3ccccc3)NC(=O)[C@H](C)NC(=O)[C@H](CCC(N)=O)NC(=O)[C@H](Cc3cccc(C(=O)O)c3)NC(=O)[C@H](CC(=O)O)NC1=O)NC(=O)[C@H](CC(C)(C)C)NC(=O)[C@H](CC(=O)O)NC2=O (stereo partly drawn) [I-2592, Ac-PL3-Asp-Npg-B5-Asp-3COOHF-Gln-Ala-Phe-Leu-SPip2-3Thi-BztA-Ala-NH2]
		27 nM	29400 nM	CC(=O)N1CCC[C@]12CC=CCCCC1(CCCC=CCCCOC(=O)N3CCC(C(=O)N[C@@H](Cc4ccsc4)C(=O)N[C@@H](Cc4csc5ccccc45)C(=O)N[C@@H](C)C(N)=O)(CC3)NC(=O)[C@H](CC(C)C)NC(=O)[C@H](Cc3ccccc3)NC(=O)[C@H](C)NC(=O)[C@H](CCC(N)=O)NC(=O)[C@H](Cc3cccc(C(=O)O)c3)NC(=O)[C@H](CC(=O)O)NC1=O)NC(=O)[C@H](CC(C)(C)C)NC(=O)[C@H](CC(=O)O)NC2=O (stereo partly drawn) [I-2593, Ac-PL3-Asp-Npg-B5-Asp-3COOHF-Gln-Ala-Phe-Leu-SPip2-3Thi-BztA-Ala-NH2]
		356 nM	> 20000 nM	CC(=O)N1CCC[C@]12CC1OC1CCCC1(CCCC=CCCCOC(=O)N3CC[C@@](C(=O)N[C@@H](Cc4ccsc4)C(=O)N[C@@H](Cc4csc5ccccc45)C(=O)N[C@@H](CCC(N)=O)C(N)=O)(C3)NC(=O)[C@H](CC(C)C)NC(=O)[C@H](Cc3ccccc3)NC(=O)[C@H](C)NC(=O)[C@H](C)NC(=O)[C@H](CN(CC(=O)O)CC(F)(F)F)NC(=O)[C@H](CC(=O)O)NC1=O)NC(=O)[C@H](CC(C)(C)C)NC(=O)[C@H](CC(=O)O)NC2=O (stereo partly drawn) [I-2595, Ac-PL3-Asp-Npg-B5-Asp-TfeGA-Ala-Ala-Phe-Leu-PyrS2-3Thi-BztA-Gln-NH2]

The remaining lines, values behind:

Compound	chromatographic logD (CHI Log D procedure)	CHI Log D (CHI Log D procedure; pH 7.4)	IC50 [1]	IC50 [2]
CC(=O)N[C@@H](Cc1ccccc1)C(=O)N[C@@H](CC(=O)O)C(=O)N[C@@H](C)C(=O)N[C@]1(C)CCN(C)C(=O)OCC=CCCCCC[C@@](C)(C(=O)N[C@@H](Cc2ccccc2)C(=O)N[C@@H](Cc2c[nH]c3ccccc23)C(=O)N[C@@H](CCC(N)=O)C(N)=O)NC(=O)[C@H](C(C)C)NC(=O)[C@H](Cc2ccccc2)NC(=O)[C@H](C)NC(=O)[C@H](C)NC(=O)[C@H](CC(=O)O)NC(=O)[C@H](CC(=O)O)NC1=O (single isomer, unassigned) [I-1, Ac-Phe-Asp-Ala-RdN-Asp-Asp-Ala-Ala-Phe-Val-S7-Phe-Trp-Gln-NH2]	1.27			
CC(=O)N[C@@H](Cc1ccccc1)C(=O)N[C@@H](CC(=O)O)C(=O)N[C@@H](C)C(=O)N[C@]1(C)CCN(C)C(=O)OCC=CCCCCC[C@@](C)(C(=O)N[C@@H](Cc2ccccc2)C(=O)N[C@@H](Cc2c[nH]c3ccccc23)C(=O)N[C@@H](CCC(N)=O)C(N)=O)NC(=O)[C@H](C(C)C)NC(=O)[C@H](Cc2ccccc2)NC(=O)[C@H](C)NC(=O)[C@H](C)NC(=O)[C@H](CC(=O)O)NC(=O)[C@H](CC(=O)O)NC1=O (single isomer, unassigned) [I-2, Ac-Phe-Asp-Ala-RdN-Asp-Asp-Ala-Ala-Phe-Val-S7-Phe-Trp-Gln-NH2]		1.246		
CC(=O)N[C@@H](Cc1ccccc1)C(=O)N[C@@H](CC(=O)O)C(=O)N[C@@H](C)C(=O)N[C@]1(C)CCCCCCC=CCOC(=O)N2CC[C@@](C(=O)N[C@@H](Cc3ccccc3)C(=O)N[C@@H](Cc3c[nH]c4ccccc34)C(=O)N[C@@H](CCC(N)=O)C(N)=O)(C2)NC(=O)[C@H](C(C)C)NC(=O)[C@H](Cc2ccccc2)NC(=O)[C@H](C)NC(=O)[C@H](C)NC(=O)[C@H](CCCC(=O)O)NC(=O)[C@H](CC(=O)O)NC1=O (single isomer, unassigned) [I-5, Ac-Phe-Asp-Ala-R8-Asp-Aad-Ala-Ala-Phe-Val-PyrS-Phe-Trp-Gln-NH2]	1.33			
CC(=O)N1CCC[C@]12CC1OC1CCCC1(CCCC=CCCCOC(=O)N3CC[C@@](C(=O)N[C@@H](Cc4ccsc4)C(=O)N[C@@H](Cc4csc5ccccc45)C(=O)N[C@@H](CCC(N)=O)C(N)=O)(C3)NC(=O)[C@H](CC(C)C)NC(=O)[C@H](Cc3ccccc3)NC(=O)[C@H](C)NC(=O)[C@H](C)NC(=O)[C@H](CN(CC(=O)O)CC(F)(F)F)NC(=O)[C@H](CC(=O)O)NC1=O)NC(=O)[C@H](CC(C)(C)C)NC(=O)[C@H](CC(=O)O)NC2=O (stereo partly drawn) [I-2594, Ac-PL3-Asp-Npg-B5-Asp-TfeGA-Ala-Ala-Phe-Leu-PyrS2-3Thi-BztA-Gln-NH2]			470 nM	> 20000 nM
CC(C)C[C@H](NC(=O)[C@]12CCN(C1)C(=O)OCCCC=CCCCC1(CCCC=CCCC(=O)N3CCC[C@@]3(C)C(=O)N[C@@H](CC(=O)O)C(=O)N1)C(=O)N[C@@H](C)C(=O)N[C@@H](CC(=O)O)C(=O)N[C@@H](CC(=O)O)C(=O)N[C@@H](C)C(=O)N[C@@H](C)C(=O)N[C@@H](Cc1ccccc1)C(=O)N2)C(=O)N[C@@H](Cc1ccsc1)C(=O)N[C@@H](Cc1csc2ccccc12)C(=O)N[C@@H](CCC(N)=O)C(N)=O (stereo partly drawn) [I-2599, 4pentenyl-MePro-Asp-B5-Ala-Asp-Asp-Ala-Ala-Phe-PyrS2-Leu-3Thi-BztA-Gln-NH2]			234 nM	> 20000 nM
